{
  "source": "patent EP0097031B1",
  "about": "“Nonapeptide and decapeptide analogs of LHRH useful as LHRH antagonists, their preparation and compositions containing them” (SYNTEX (U.S.A.) INC., priority 1982, dated 1988)",
  "note": "dPhe(4-Cl) = N[C@H](Cc1ccc(Cl)cc1)C(=O)O; d2Nal = N[C@H](Cc1ccc2ccccc2c1)C(=O)O; dDeh = not defined here",
  "data": [
    {"test_system": "female mice", "experiment": "acute subcutaneous toxicity in mice (21-day observation)", "assay_type": "in vivo", "details": "administered subcutaneously to each of 6 female mice, 0.3 m.g. per animal (or 12 mg/kg body weight)", "method": "Compounds 8,16,18,19 and 24 from Example 8 were administered subcutaneously to each of 6 female mice at a dose level of 0.3 m.g. per animal (or 12 mg/kg body weight). During an observation period of 21 days, no deaths were recorded in any of the treatment groups.\nThe acute subcutaneous LD50 in mice is thus greater than 12 mg/kg for these compounds.", "values": [
      {"substance": "N-Ac-D-Nal(2)-D-p-Cl-Phe-D-Trp-Ser-Tyr-D-Deh-Leu-Arg-Pro-D-AlaNH2 [Compound 19]", "deaths recorded during an observation period of 21 days": "no deaths"},
      {"substance": "N-Ac-D-Nal(2)-D-p-F-Phe-D-Trp-Ser-Tyr-D-Deh-Leu-Arg-Pro-GlyNH2 [Compound 16]", "deaths recorded during an observation period of 21 days": "no deaths"},
      {"substance": "N-Ac-D-p-Cl-Phe-D-p-Cl-Phe-D-Trp-Ser-Tyr-D-Dph-Leu-Arg-Pro-D-AlaNH2 [Compound 8]", "deaths recorded during an observation period of 21 days": "no deaths"},
      {"substance": "N-Ac-D-Nal(2)-D-p-Cl-Phe-D-Trp-Ser-Tyr-D-Deh-Leu-Arg-Pro-GlyNH2 ({Ac-d2Nal-dPhe(4-Cl)-dW-Ser-Tyr-dDeh}-LRPG-NH2; reading uncertain; also: printed as N-Ac-D-Nal(2)-D-p-Cl-Phe-D-Trp-Ser-Tyr-D-Deh-Leu-Arg-Pro-GlyNH2) [Compound 18]", "deaths recorded during an observation period of 21 days": "no deaths"}
    ]}
  ]
}
